Assay results as given in US20060172945A1, “Human neutrophil alpha-defensin 4 inhibition of HIV-1” (priority 2005, published 2006).
Entries after “also recorded” stand apart in the source; their conditions may differ. No end group written: not given here.

Test system: HIV-1 isolates IIIB (X4), BaL (R5), B703 (X4), NSI03 (R5) in PBMC
Test: Inhibition of HIV-1 replication in PBMC, HIV-1 p24 antigen-capture ELISA
Type: cell-based
Conditions: HIV-1 infected human PBMC in vitro, p24 at day 4; HNP4 compared with HNPs 1-3
Experimental: Inhibition of HIV-1 in vitro by α-defensins 1-3 was first reported by Nakashima et al, 1993 [11], which has been confirmed by several recent reports.
Cells infected with the HIV-1 virus were added to duplicate series of wells containing varying concentrations of test defensin in 200 ul complete culture medium, and fed after 48 hours with fresh defensin of appropriate quantities. Medium alone was used as the control. The level of HIV-1 replication was measured at day 4 after infection by HIV-1 p24 antigen-capture ELISA. Percent infection was determined as a function of HIV p24 released into the medium in sample wells versus in control wells.

## HNP4: Human neutrophil α-defensin 4, 33 amino acid residues; amino acid residues 64-96 of defensin 4 (VCSCRLVFCRRTELRVGNCLIGGVSFTYCCTRV; ends and bridges not checked; cysteine pairing not given here; UniProt P12838 64-96, looked up, fragment)
  Inhibition of HIV-1 (in words): significantly more effective inhibitor than HNPs 1-3; also recorded: significantly and unexpectedly stronger
